Results on 6 compounds are retold here after patent US5002948A, “3-[4-[4-substituted-1-piperazinyl]-1-butyl]-1H-2,3-dihydroindoles” (H. Lundbeck A/S, priority 1988, dated 1991).

For orientation: ED50 means the dose at which the effect has come halfway, by size or by number of responders.

Structures are written as SMILES.

Holding throughout (type): in vivo, Male Wistar rats
Test [1] concerns the target T1, 5-HT1A (Rattus norvegicus, UniProt P19327).
T1 sequence (P19327 1-422): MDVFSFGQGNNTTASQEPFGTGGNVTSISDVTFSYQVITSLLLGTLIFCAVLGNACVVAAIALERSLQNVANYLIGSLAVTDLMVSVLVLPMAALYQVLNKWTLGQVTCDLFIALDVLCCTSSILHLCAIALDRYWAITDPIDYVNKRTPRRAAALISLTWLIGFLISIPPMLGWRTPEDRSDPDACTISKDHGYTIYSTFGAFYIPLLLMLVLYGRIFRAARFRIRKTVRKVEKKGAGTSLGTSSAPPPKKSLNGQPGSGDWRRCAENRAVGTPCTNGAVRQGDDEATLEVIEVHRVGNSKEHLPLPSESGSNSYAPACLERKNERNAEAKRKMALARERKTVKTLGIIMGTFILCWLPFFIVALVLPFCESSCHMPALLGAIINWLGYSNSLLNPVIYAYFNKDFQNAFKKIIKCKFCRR
In words: Inhibition of 5-methoxy-N,N-dimethyltryptamine (5-MeODMT) induced 5-HT syndrome in rats. The arrangement: Male Wistar rats (Mol:Wist) weighing 170-240 g are used; from tissue; host or cells: whole living animal, male Wistar rats (Mol:Wist), s.c. dosing. The conditions noted are these: 30 min before 5-MeODMT 5 mg/kg s.c., per cent inhibition of piano playing syndrome; for ED50: rat, sc. The text has this:
INHIBITION OF 5-METHOXY-N,N-[…] INDUCED 5-HT SYNDROME IN RATS
The so-called 5-HT syndrome is a characteristic behaviour pattern which is induced by 5-HT agonists with effects on 5-HT, possibly 5-HT1A receptors, although lack of specific antagonists make it difficult to evaluate specificity (Smith, L. M. and S. J. Peroutka, Pharmacol. Biochem. & Behaviour 24, 1513-1519, 1986; Tricklebank, M. et al., Eur. J. Pharmacol. 117, 15-24, 1985).
Male Wistar rats (Mol:Wist) weighing 170-240 g are used. Test substrate is injected subcutaneously 30 min. before 5-methoxy-N,N-dimethyltryptamine 5 mg/kg, s.c. Four rats are used for each dose. A control group pretreated with saline is included each test day. Ten, 15 and 20 min later the rats are observed for presence of serotonin (5-HT) syndrome: (1) forepaw treading ("piano playing"), (2) head weaving and (3) hindleg abduction. Further, flat motility is scored. Each part of the syndrome is scored as follows: marked effect (score 2), weak syndrome (score 1) and no effect (score 0). The scores of the three observation times are added. Thus the maximum obtainable score for four rats is 24. The effect of the test substance is expressed as per cent inhibition relative to the control group.
The per cent inhibition of the piano playing syndrome is used as the response, and ED50 values are calculated by log-prohibit analysis.

For test [2], the target named is T1, 5-HT1A. In words: Generalization to discriminative stimulus properties induced by 8-OHDPAT in rats (agonism). The arrangement: from tissue; host or cells: whole living animal, male Wistar rats, s.c. dosing. The conditions noted are these: usually 30 or 45 min before test, substituted for 8-OHDPAT, per cent drug response; for ED50: rat, sc, read-out: ED50, 8-OH DPAT cue agonism. The text has this: GENERALIZATION TO DISCRIMINATIVE STIMULUS PROPERTIES INDUCED BY 8-OHDPAT IN RATS.
This test model is used to determine the agonist effects of a test compound on 5-HT1A receptors in vivo. A related method is described by Tricklebank, M. D., J. Neill, E. J. Kidd and J. R. Fozard, Eur. J. Pharmacol. 133, 37-56, 1987; Arnt, J., Pharmacology & Toxicology 64, 165-172, 1989.
The procedure is the same as for the antagonism test mentioned above, except that the test compound is substituted for 8-OHDPAT and injected s.c. usually 30 minutes or 45 minutes respectively before beginning of the test.
The per cent drug response obtained for each dose of test compound is used to calculate ED50 values by log-probit analysis.

For test [3], the target named is T1, 5-HT1A. The test can be described thus: Antagonism of the discriminative stimulus properties induced by 8-OHDPAT in rats. The conditions noted are these: s.c. before 8-OHDPAT, rats trained at 0.4 mg/kg i.p., inhibition of drug responding; for ED50, 8-OH DPAT cue antagonism: 0.4 mg/kg; for ED50: rat, sc, read-out: ED50, 8-OH DPAT cue antagonism. Also noted: from tissue; host or cells: whole living animal, male Wistar rats, s.c. dosing. The method, then: ANTAGONISM OF THE DISCRIMINATIVE STIMULUS PROPERTIES INDUCED BY 8-OHDPAT IN RATS.
This test model is used to determine the antagonist effects of a test compound on 5-HT1A receptors in vivo. A related method is described by Tricklebank, M. D., J. Neill, E. J. Kidd and J. R. Fozard, Eur. J. Pharmacol. 133, 47-56, 1987; Arnt. J., Pharmacology & Toxicology 64, 165-172, 1989.
Male Wistar rats are trained to discriminate between 8-OHDPAT (0.4 mg/kg, i.p., 15 min. pretreatment) and physiological saline in operant chambers equipped with two response levers. Between the levers a dipper is placed, where water rewards (0.1 ml) are presented. The rats are water deprived for at least 24 h and work in a fixed ratio (FR) schedule (final FR=32).
Following 8-OHDPAT administration responding is reinforced only on a designated (drug) lever, whereas responding on the opposite lever has no consequences. Following saline administration responding is reinforced on the lever opposite to the drug lever. Drug and saline trials alternate randomly between training days, although the same treatment is given maximally at 3 consecutive days. The level of discrimination occuracy is expressed as the per cent drug responses and is calculated as the number of correct responses×100 divided by the sum of the correct and incorrect responses before the first reward. When stable occuracy (mean correct responding=90 per cent; individual rats at least 75 per cent correct responding) is obtained test sessions are included between training days. Test compound is injected s.c. at appropriate time before 8-OHDPAT and the test begins 15 min after 8-OHDPAT injection. The test trial is terminated when a total of 32 responses are made on either lever or when 20 min have elapsed. No reward is given and the rats have free access to water for 20-30 min after the test. The effects are expressed as per cent inhibition of drug responding. Only results from rats making at least 10 responses on one lever are included in data analysis. Furthermore, only test sessions in which at least half of the rats respond are included.
The per cent inhibition of drug response obtained for each dose of test compound is used to calculate ED50 values by log-probit analysis.

For `COc1ccccc1N1CCN(CCCCC2CNc3ccccc32)CC1` (single isomer, unassigned; (+)) [Compound 7a, (+)-3-[4-[4-(2-methoxyphenyl)-1-piperazinyl]-1-butyl]-1H-2,3-dihydroindole], the figures for the 50% effective dose (ED50) at 5-HT1A [1] and at 5-HT1A [2] were 2.1 µmol/kg and more than 6.8 µmol/kg, respectively. In addition, the “ED50, 8-OH DPAT cue antagonism” value on 5-HT1A [3] was 1.0 µmol/kg.
As to `COc1ccccc1N1CCN(CCCCC2CNc3ccccc32)CC1` (single isomer, unassigned; (-)) [Compound 7b, (-)-3-[4-[4-(2-methoxyphenyl)-1-piperazinyl]-1-butyl]-1H-2,3-dihydroindole], the “ED50, inhibition of 5-MeODMT induced 5-HT syndrome” value at 5-HT1A [1] (s.c.) came out at 1.3 µmol/kg. At 5-HT1A [2] (s.c.), the “ED50, 8-OH DPAT cue agonism” value is more than 3.4 µmol/kg. The “ED50, 8-OH DPAT cue antagonism” value on 5-HT1A [3] was more than 3.4 µmol/kg.
Turning to `COc1ccccc1N1CCN(CCCCC2CNc3ccccc32)CC1` (stereo not drawn) [Compound 3a, 3-[4-[4-(2-methoxyphenyl)-1-piperazinyl]-1-butyl]-1H-2,3-dihydroindole], the ED50 was 1.9 µmol/kg on 5-HT1A [1], more than 9.2 µmol/kg at 5-HT1A [2] and 7.2 µmol/kg at 5-HT1A [3].
Taken in the same sequence, the figures for `CCOc1ccccc1N1CCN(CCCCC2CNc3ccccc32)CC1` (stereo not drawn) [Compound 3c, 3-[4-[4-(2-ethoxyphenyl)-1-piperazinyl]-1-butyl]-1H-2,3-dihydroindole] were 0.48 µmol/kg, more than 26 µmol/kg and 4.8 µmol/kg.
In the case of `c1ccc2c(c1)NCC2CCCCN1CCN(c2cccc3c2OCC3)CC1` (stereo not drawn) [Compound 3i, 3-[4-[4-(2,3-dihydro-7-benzofuranyl)-1-piperazinyl]-1-butyl]-1H-2,3-dihydroindole], the ED50 is 4 µmol/kg on 5-HT1A [1], 2.7 µmol/kg on 5-HT1A [2] and more than 9 µmol/kg on 5-HT1A [3].
Turning to `c1ccc2c(c1)NCC2CCCCN1CCN(c2cccc3c2OCCO3)CC1` (stereo not drawn) [Compound 3j, 3-[4-[4-(1,4-benzodioxan-5-yl)-1-piperazinyl]-1-butyl]-1H-2,3-dihydroindole], the values for the 50% effective dose (ED50) on 5-HT1A [1], at 5-HT1A [2] and on 5-HT1A [3] were 3.1 µmol/kg, more than 4.4 µmol/kg and 8.8 µmol/kg, respectively.
